Source: article PMC11096368, “Transcriptomic signature, bioactivity and safety of a non-hepatotoxic analgesic generating AM404 in the midbrain PAG region” (Scientific Reports, 2024)

Experiment: LC–MS/MS detection of D10-SRP-001 and AM404 in the periaqueductal gray (PAG)
Type: in vivo, rats
Details: 30 min after IP injection, LC/MS–MS
Procedure: Next, we sought to define the uptake of SRP-001 in the nociception area of the brain, the midbrain’s periaqueductal (PAG) area[42],[43]. Thirty min following ip-SRP-001 administration (32 mg/kg), the PAG was harvested and analyzed by LC/MS–MS. D10-SRP-001 was used to match the fragmentation pattern while monitoring analytes.
Deuterated compound D10-SRP-001 was synthesized by Olon Ricerca Bioscience (Concord, OH), and purity was determined to be > 99.9% by HPLC. This was used as pure analytical standard for detection of SRP-001 using an LC–MS/MS method. Similarly, pure analytical standard of AM404 (10 ng/mL) obtained from Cayman Chemical (Ann Arbor, MI) was used to characterize the full fragmentation pattern of AM404. […] Thirty min post-injection, the animals were sacrificed (same as in the CFA/von Frey model), their brains harvested, and the midbrain periaqueductal gray (PAG) region excised. SRP-001 or AM404 were extracted from the PAG using a liquid–liquid extraction method using 1:1 MeOH:H2O for LC–MS/MS and were loaded onto a liquid chromatography-tandem mass spectrophotometer for analysis. The mass spectrophotometer was operated in multiple reaction monitoring (MRM) mode using positive ion electrospray. D10-SRP-001 was detected by monitoring the m/z transition 416 → 186. AM404 was detected by monitoring the m/z transition 396 → 287.

In the case of [2H]C([2H])([2H])C([2H])([2H])N(C(=O)c1ccccc1S(=O)(=O)NCC(=O)Nc1ccc(O)cc1)C([2H])([2H])C([2H])([2H])[2H] [D10-SRP-001], the “Detection in rat brain” value is reported as “detected in the brain”.
